# Reference: BindingDB's records for patent WO2024186584 (8932 Hightail Drive, 2024)
# Target: Alpha-synuclein (Homo sapiens, UniProt P37840)
# Experiment: Alpha-Synuclein Tissue Homogenate Binding Assay
# Protocol: For displacement α-synuclein binding assay, compounds and control were solvated in dimethyl sulfoxide (DMSO) and transferred using focused acoustic energy by an Echo 655 liquid handling instrument (Beckman Coulter, Indianapolis, IN) into designated wells of uniquely bar coded 96-well v-bottom low binding polypropylene microplates (Thermo Scientific, 249946). Compound dose response curves were prepared in a 10-point, 3-fold fashion within columns 2 -11 of the microplate from high to low compound concentrations. The final assay concentration of dose response curves when starting at 1 mM ranged from 1.2 µM to 0.061 nM (0.12 % DMSO final assay concentration, 270 nL/well). Controls included no inhibitor (DMSO only) dispensed into wells A1 – D1, A12 – D12 for minimum efficacy signal and Compound 1000 at a final assay concentration of 12 µM into wells E1 – H1, E12 – H12 for maximum efficacy signal. Liquid-handling steps for dispensing insoluble fractions of PD brain homogenates and 25666 radioligand were performed using a Bravo automated liquid handling platform equipped with a 96LT disposable tip head (Agilent Technologies, Santa Clara, CA). […] A clear adhesive seal (TopSeal-A PLUS, PerkinElmer 6050185) was then applied to the top of each microplate and counted 1 minute/well on MicroBeta2 system (PerkinElmer, Model: 2450-0120).
row,SMILES,Ki [µM]
1,"COC[C@H]1CN(c2cc(F)ccn2)CCN1c1ncc(/C=C/c2ccc(-n3ccnc3)nc2)cn1 [WO2024186584, Example 17]",0.0009
2,"FCOC[C@H]1CN(c2ncc(/C=C/c3ccc(-n4ccnc4)nc3)cn2)CCN1c1ncccn1 [WO2024186584, Example 4]",0.0012

# Target: Amyloid-beta precursor protein (Homo sapiens, UniProt P05067)
# Sequence (P05067 whole entry): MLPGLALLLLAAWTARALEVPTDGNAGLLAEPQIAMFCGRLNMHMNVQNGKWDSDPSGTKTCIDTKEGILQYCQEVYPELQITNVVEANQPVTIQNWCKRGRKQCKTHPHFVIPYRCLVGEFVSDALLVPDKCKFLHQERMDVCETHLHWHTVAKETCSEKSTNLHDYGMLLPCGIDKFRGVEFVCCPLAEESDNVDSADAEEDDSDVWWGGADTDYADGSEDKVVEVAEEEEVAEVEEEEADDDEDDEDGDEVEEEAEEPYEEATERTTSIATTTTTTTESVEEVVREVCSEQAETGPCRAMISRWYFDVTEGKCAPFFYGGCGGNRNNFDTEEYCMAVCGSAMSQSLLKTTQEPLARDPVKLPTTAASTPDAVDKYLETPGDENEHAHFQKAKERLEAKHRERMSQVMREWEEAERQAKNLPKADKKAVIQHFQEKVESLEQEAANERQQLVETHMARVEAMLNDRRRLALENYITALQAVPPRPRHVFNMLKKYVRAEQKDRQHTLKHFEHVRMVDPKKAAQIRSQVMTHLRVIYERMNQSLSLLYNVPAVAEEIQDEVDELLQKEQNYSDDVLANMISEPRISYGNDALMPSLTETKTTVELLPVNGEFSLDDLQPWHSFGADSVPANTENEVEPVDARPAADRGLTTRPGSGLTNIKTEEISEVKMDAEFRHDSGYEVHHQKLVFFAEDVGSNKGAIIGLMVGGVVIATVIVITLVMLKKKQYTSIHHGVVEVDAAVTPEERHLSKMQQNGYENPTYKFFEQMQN
# Experiment: Competitive radioligand binding to pathological aggregated beta amyloid in AD tissue
row,SMILES,Ki [µM]
1,"COC[C@H]1CN(c2ncc(/C=C/c3ccc(-n4ccnc4)nc3)cn2)CCN1c1ncc(OCCF)cn1 [WO2024186584, Example 35]",4
2,"FCOC[C@H]1CN(c2ncc(/C=C/c3ccc(-n4ccnc4)nc3)cn2)CCN1c1ncccn1 [WO2024186584, Example 4]",0.1
3,"COC[C@H]1CN(c2ncccn2)CCN1c1ncc(/C=C/c2ccc(-n3ccnc3)nc2)cn1 [WO2024186584, Example 28]",4
4,"FCCOC[C@H]1CN(c2ncc(/C=C/c3ccc(-n4ccnc4)nc3)cn2)CCN1c1ncccn1 [WO2024186584, Example 3]",4
5,"COC[C@H]1CN(c2ncc(C#Cc3ccc(-n4ccnc4)nc3)cn2)CCN1c1cc(F)ncn1 [WO2024186584, Example 12]",4
6,"COC[C@H]1CN(c2ncc(/C=C/c3ccc(-n4ccnc4)nc3)cn2)CCN1c1ncc(OCC(O)CF)cn1 (stereo partly drawn) [WO2024186584, Example 39]",4
